For data set [1] the following is noted: cc_pd bond.
The conditions of data set [2]: from C=Cc1nn(C2CCCCO2)c2ccc(-c3cnn(C)c3O[C@H](CC)CN(C)Cc3c(I)c(OCC)nn3CCO[Si](C)(C)C(C)(C)C)cc12; cc_pd bond; 15-membered ring; Pd(OAc)2/TBAC/NaHCO3; DMF; 97.8 mM; 80.0 °C; 1.0 h.
The conditions of data set [3]: cc_pd bond; 15-membered ring; Pd(dppf)Cl2/Cs2CO3; 1,4-dioxane/H2O 5:1; 127.0 mM; 90.0 °C.

Like-named read-outs stand apart in the source and are kept apart here.

`CCOC(=O)c1nn(C)c2c1-c1ccc3c(c1)c(nn3C1CCCCO1)/C=C/c1c(OCC)nn(CCO[Si](C)(C)C(C)(C)C)c1CN(CC)C[C@H](C)O2` (stereo partly drawn) displayed a ring closure, isolated yield in data set [1] (from ethyl 5-[(1S)-2-[[2-[2-[tert-butyl(dimethyl)silyl]oxyethyl]-5-ethoxy-4-iodo-pyrazol-3-yl]methyl-ethyl-amino]-1-methyl-ethoxy]-1-methyl-4-(1-tetrahydropyran-2-yl-3-vinyl-indazol-5-yl) pyrazole-3-carboxylate, 15-membered ring, Pd(OAc)2/TBAC/NaHCO3, DMF, 67.4 mM, 120.0 °C) of 77%. In data set [2], `CCOc1nn(CCO[Si](C)(C)C(C)(C)C)c2c1C=Cc1nn(C3CCCCO3)c3ccc(cc13)-c1cnn(C)c1O[C@H](CC)CN(C)C2` (stereo partly drawn) showed a ring closure, crude yield of 62%. In data set [1] (from Cc1c(CN(C)C[C@H](C)Oc2c(-c3ccc4c(c3)c(/C=C/B3OC(C)(C)C(C)(C)O3)nn4C3CCCCO3)cnn2C)c(I)nn1C, 15-membered ring, BrettPhos Pd G4/Na2CO3 aq, dioxane/H2O, 24.8 mM, 80.0 °C, 2.0 h), `Cc1c2c(nn1C)C=Cc1nn(C3CCCCO3)c3ccc(cc13)-c1cnn(C)c1O[C@@H](C)CN(C)C2` (stereo partly drawn) registered a ring closure, isolated yield of 58%. In turn, `Cc1n[nH]c2c1/C=C/c1nn(C3CCCCO3)c3ccc(cc13)-c1cnn(C)c1CN(C(=O)OC(C)(C)C)CCO2` (stereo not drawn) returned a ring closure, isolated yield in data set [1] (from tert-butyl N-[2-[(4-iodo-3-methyl-1H-pyrazol-5-yl)oxy]ethyl]-N-[[2-methyl-4-[1-tetrahydropyran-2-yl-3-[(E)-2-(4,4,5,5-tetramethyl-1,3,2-dioxaborolan-2-yl)vinyl]indazol-5-yl]pyrazol-3-yl]methylicarbamate, 15-membered ring) of 54%.

On to `Cc1nn(C)c2c1/C=C/c1nn(C3CCCCO3)c3ccc(cc13)-c1cnn(C)c1CN(C)CC(C)O2` (stereo not drawn), for which the ring closure, isolated yield in data set [1] (from Cc1nn(C)c(OC(C)CN(C)Cc2c(-c3ccc4c(c3)c(/C=C/B3OC(C)(C)C(C)(C)O3)nn4C3CCCCO3)cnn2C)c1I, 15-membered ring, XPhos Pd G4/K3PO4, DMA, 66.5 mM, 80.0 °C, 2.0 h) came to 24%. With `Cc1nn(C)c2c1C=Cc1nn(C3CCCCO3)c3ccc(cc13)-c1cnn(C)c1OCCOC2` (stereo not drawn), in data set [1] (from Cc1nn(C)c(COCCOc2c(-c3ccc4c(c3)c(/C=C/B3OC(C)(C)C(C)(C)O3)nn4C3CCCCO3)cnn2C)c1I, 15-membered ring, Pd XPhos G4/K3PO4, DMA/H2O, 55.3 mM, 90.0 °C, 3.0 h), the ring closure, isolated yield turned out to be 14.2%.

As to `Cn1ncc2c1OCCN1CC[C@@H](Oc3cc(Cl)ccc3C=Cc3nn(C4CCCCO4)c4ccc-2cc34)C1=O` (stereo partly drawn), in data set [1] (from Cn1ncc(-c2ccc3c(c2)c(/C=C/B2OC(C)(C)C(C)(C)O2)nn3C2CCCCO2)c1OCCN1CC[C@@H](Oc2cc(Br)ccc2I)C1=O, 17-membered ring, Pd(dppf)Cl2.CH2Cl2/K2CO3, dioxane/H2O 5:1, 19.4 mM, 90.0 °C, 2.0 h), the ring closure, isolated yield was 38%. Take `Cn1ncc2c1OCCN1CC[C@@H](Oc3ccccc3/C=C/c3nn(C4CCCCO4)c4ccc-2cc34)C1=O` (stereo partly drawn): in data set [1] (from Cn1ncc(-c2ccc3c(c2)c(/C=C/B2OC(C)(C)C(C)(C)O2)nn3C2CCCCO2)c1OCCN1CC[C@@H](Oc2ccccc2I)C1=O, 17-membered ring, XPhos Pd G4/K3PO4, DMA, 25.0 mM, 80.0 °C, 2.0 h), the ring closure, isolated yield was determined as 36%. The compound “2-[(17E)-5,15-dimethyl-21-tetrahydropyran-2-yl-7,10-dioxa-4,5,13,14,20,21-hexazapentacyclo[17.5.2.0^2,6.0^12,160.0^22,26]hexacosa-1(25),2(6),3,12(16),14,17,19,22(26),23-nonaen-13-yl]acetic acid” came in with a ring closure, yield after HPLC in data set [3] of 30%.

Values taken from patent US20250353864A1, “INDAZOLE CONTAINING MACROCYCLES AND THEIR USE” (BLOSSOMHILL THERAPEUTICS, INC., priority 2022, published 2025).
